# According to US8377706B2, “Olfactory receptor-functionalized transistors for highly selective bioelectronic nose and biosensor using the same” (Seoul National University Industry Foundation, priority 2008, dated 2013):
# Legend:
# [1] = Control: conductance measurement on carbon nanotube transistors with lipid membranes in which hOR2AG1 was not included; conditions: lipid membranes without olfactory receptors
# Procedure: (§1) To measure the effects of odorants on the biosensor using human olfactory receptor functionalized transistors, drops of 9 μl phosphate buffered saline (PBS) were placed onto the human olfactory receptor functionalized transistors manufactured in […]. Subsequently, the source-drain current was monitored after the introduction of a solution containing specific odorants. A bias voltage of 100 mV was maintained at all time during the electrical measurement (See FIG. 8).
# (§2) The results are shown in FIGS. 12 and 13, respectively. As shown respectively in FIGS. 12 and 13, each of the conductance modulations was observed on the biosensors using modified carbon nanotube transistors with lipid membranes in which hOR2AG1 was not included and bare carbon nanotube transistors, after the introduction of amyl butyrate at 100 mM.
# [2] = target: T1, hOR2AG1 (Homo sapiens, UniProt Q9H205); conditions: known; cited from earlier work
# T1 sequence (Q9H205 1-316): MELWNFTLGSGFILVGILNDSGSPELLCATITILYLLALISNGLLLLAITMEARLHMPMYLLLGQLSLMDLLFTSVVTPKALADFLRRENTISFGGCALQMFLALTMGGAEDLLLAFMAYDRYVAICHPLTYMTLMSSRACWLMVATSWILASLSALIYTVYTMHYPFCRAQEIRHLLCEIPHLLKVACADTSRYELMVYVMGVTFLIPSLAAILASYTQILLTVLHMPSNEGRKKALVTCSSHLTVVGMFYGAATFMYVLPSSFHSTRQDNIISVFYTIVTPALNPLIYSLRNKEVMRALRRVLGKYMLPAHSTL
# [3] = Control: conductance measurement on bare carbon nanotube transistors; conditions: bare CNT
# Procedure: as §1, §2
# [4] = target: T2, human olfactory receptor 2AG1 (hOR2AG1) protein (Homo sapiens, UniProt Q9H205); assay: Conductance (source-drain current) measurement of biosensor using hOR2AG1-functionalized swCNT transistors after introduction of odorants; format: biochemical; conditions: for Detection Limit: lipid membranes with hOR2AG1 on swCNT-FET, odorant solution in PBS, bias 100 mV
# T2 construct: made in house; host or cells: Escherichia coli
# T2 sequence (Q9H205 1-316): T1 sequence (Q9H205 1-316)
# Procedure: 1 μl of the hOR2AG1-containing fraction collected in Example 1 was evenly spread to cover the swCNTs and electrodes, and vacuum-dried for 4 hours to fix the hOR2AG1, thereby manufacturing human olfactory receptor-functionalized carbon nanotube transistors.
# as §1
# A 1 M stock solution of the odorants was prepared, and additional dilutions (from 10^−1 M to 10^−13 M) were obtained by serial 1:10 dilutions in PBS.
# Butyl butyrate, phenyl valerate, and propyl butyrate were introduced at various concentrations on the biosensors using hOR2AG1 functionalized transistors manufactured in Example 2 of the present invention, each of the conductance modulations was measured, and the results were recorded in FIGS. 14 to 16, respectively. The arrows illustrated in FIGS. 14 to 16 show time points of introduction of each odorant.
SMILES,Detection Limit [1],Activation of hOR2AG1 [2],Detection Limit [3],"Source-drain current after introduction of odorant ([4]; 100 fM, 1 pM, 10 pM and 100 pM (FIG. 10))",Detection Limit [4],Effect on biosensor conductance ([4]; odorant at 1 pM (FIG. 11)),Effect on biosensor conductance ([4]; odorant at 100 μM (FIG. 11))
"CCCCCOC(=O)CCC [Amyl butyrate (AB), amyl butyrate]",100 mM,activated,100 mM,sharply decreased,1e-10 mM,sharply decreased,
"CCCCOC(=O)CCC [Butyl butyrate (BB), butyl butyrate]",,,,,10 mM,,did not affect the biosensor
"CCCCCOC(=O)CCCC [Pentyl valerate (PV), pentyl valerate]",,,,,10 mM,,did not affect the biosensor
"CCCOC(=O)CCC [Propyl butyrate (PB), propyl butyrate]",,,,,10 mM,,did not affect the biosensor
